{"source": "patent US20110117069A1", "about": "“METHOD FOR ACTIVATING REGULATORY T-CELLS” (IMTM GMBH, priority 2007, published 2011)", "key": {"APN": {"system": "APN", "conditions": "cited from earlier work; for Ki: α-Keto amides"}, "Argininyl AP": {"biological_target": "Argininyl AP (Homo sapiens, UniProt Q9H4A4)", "sequence (Q9H4A4 whole entry)": "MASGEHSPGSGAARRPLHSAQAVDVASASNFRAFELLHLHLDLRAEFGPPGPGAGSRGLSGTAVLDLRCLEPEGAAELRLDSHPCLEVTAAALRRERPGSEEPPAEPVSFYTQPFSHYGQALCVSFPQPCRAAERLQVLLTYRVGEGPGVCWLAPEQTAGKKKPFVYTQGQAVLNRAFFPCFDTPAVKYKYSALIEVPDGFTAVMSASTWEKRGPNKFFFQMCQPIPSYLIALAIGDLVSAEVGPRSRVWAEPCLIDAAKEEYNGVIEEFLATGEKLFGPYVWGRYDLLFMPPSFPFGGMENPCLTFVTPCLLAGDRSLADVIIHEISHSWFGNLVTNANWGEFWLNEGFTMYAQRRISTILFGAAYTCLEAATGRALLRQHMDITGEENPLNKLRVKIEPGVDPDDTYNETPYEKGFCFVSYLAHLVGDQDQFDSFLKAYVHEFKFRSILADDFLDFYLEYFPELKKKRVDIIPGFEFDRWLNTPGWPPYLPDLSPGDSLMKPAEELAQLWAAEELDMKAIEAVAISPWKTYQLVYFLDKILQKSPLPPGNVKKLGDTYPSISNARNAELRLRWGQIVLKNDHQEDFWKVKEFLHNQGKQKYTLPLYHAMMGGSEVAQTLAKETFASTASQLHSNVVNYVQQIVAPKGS", "conditions": "α-Keto amides, cited from earlier work"}, "LAP": {"biological_target": "LAP (Homo sapiens, UniProt P28838)", "sequence (P28838 whole entry)": "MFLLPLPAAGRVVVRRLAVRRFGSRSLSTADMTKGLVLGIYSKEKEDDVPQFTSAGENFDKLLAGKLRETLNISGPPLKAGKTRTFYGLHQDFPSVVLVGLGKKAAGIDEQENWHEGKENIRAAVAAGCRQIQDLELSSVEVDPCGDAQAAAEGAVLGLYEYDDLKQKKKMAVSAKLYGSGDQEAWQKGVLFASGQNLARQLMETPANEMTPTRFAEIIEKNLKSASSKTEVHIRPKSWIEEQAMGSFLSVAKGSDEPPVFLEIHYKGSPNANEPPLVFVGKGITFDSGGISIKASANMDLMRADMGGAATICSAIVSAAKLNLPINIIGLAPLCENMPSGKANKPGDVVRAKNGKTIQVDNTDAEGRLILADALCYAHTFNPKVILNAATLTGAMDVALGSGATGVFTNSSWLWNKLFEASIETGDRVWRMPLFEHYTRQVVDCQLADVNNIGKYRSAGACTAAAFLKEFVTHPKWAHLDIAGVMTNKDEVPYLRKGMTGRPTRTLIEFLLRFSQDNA", "conditions": "α-Aminoboric acids; cited from earlier work"}, "[1]": {"system": "murine regulatory T-cells (CD4+CD25+)", "test": "Co-culture of murine effector cells (MNC-CD25-) and regulatory T-cells, proliferation by tritium thymidine inclusion", "type": "cell-based, mice", "conditions": "1.0 μM, after 5 days of co-culture, anti-CD3/anti-CD28", "method": "Mononuclear cells (MNC) were obtained from the peripheral blood of healthy mice by means of density-gradient centrifugation. The isolation of regulatory T-cells occurred using CD25 marking [anti-CD25 MicroBeads, Miltenyi Biotech]. The CD25^− MNC fraction served as effector cell control.\nThe functional capacity of the regulatory T-cells was tested in a special co-culture. For this, 20 000 effector cells (MNC-CD25^−) and regulatory T-cells (CD4^+CD25^+) in total were respectively cultivated in different quantitative ratios to one another over a period of 120 hours in microtest plates. The T-cell stimulation occurred by adding anti-CD3/anti-CD28 [1 μg/ml].\nThe degree of proliferation of the cultivated cells was analysed on the basis of the DNA synthesis rate by means of tritium thymidine inclusion over 24 hours [n=4]."}, "colitis in Balb-c mice": {"system": "colitis in Balb-c mice", "test": "DSS colitis model in mice, disease activity index (DAI)", "type": "in vivo", "conditions": "single intravenous application on day 3, phebestin 0.5 mg/kg or 1 million cells/animal, up to 48 hours after application", "from_the_text": "Colitis was triggered in Balb-c mice by the oral application of 3% dextran sodium sulphate solution (DSS). The degree of severity of the illness was established on the basis of a disease activity index (DAI). This consisted of the daily documentation of body weight loss, stool consistency, rectal bleeding, food and water intake, and is defined in the publication “Bank, U., Heimburg, A., Helmuth, M., Stefin, S., Lendeckel, U., Reinhold, D., Faust, J., Fuchs, P., Sens, B., Neubert, K., Täger, M., Ansorge, S.; Triggering endogenous immunosuppressive mechanisms by combined targeting of dipeptidyl peptidase IV (DPIV/CD26) and aminopeptidase N (APN/CD13)—A novel approach for the treatment of inflammatory bowel disease; International Immunopharmacology 6: 1925-1934 (2006)”.\nRegulatory T-cells from peripheral venous blood were recovered in parallel by means of density-gradient centrifugation and magnetic separation using CD25 Microbeads.\nOn day 3, either the aminopeptidase N inhibitor phebestin (0.5 mg/kgKG), untreated CD4^+CD25^+ Treg cells (1 million cells/animal) or activated CD4^+CD25^+ Treg cells (1 million cells/animal) were applied once intravenously.\nThe activation of the Treg cells occurred ex situ using the method according to the invention by incubating the Treg cells for 45 minutes in the presence of phebestin [500 μg/ml]."}, "Cytosolic AP": {"biological_target": "Cytosolic AP", "conditions": "α-Keto amides; cited from earlier work"}, "[2]": {"system": "human regulatory T-cells (CD4+CD25+)", "test": "Co-culture of human effector cells (CD4+CD25-) and regulatory T-cells, proliferation by tritium thymidine inclusion", "type": "cell-based", "conditions": "for effect of the inhibitor on suppressive capacity of the Treg cells: 120 hours co-culture, anti-CD3", "from_the_text": "Mononuclear cells were obtained from the peripheral blood of healthy donors by means of density-gradient centrifugation. The isolation of regulatory T-cells occurred by means of a two-stage magnetic separation:\nIn a first step CD4^+ T-cells were recovered by depletion of all CD4-negative cells [CD4 separation kit, Miltenyi Biotech, Bergisch-Gladbach, Germany]. The purity achieved regularly amounted to >95% CD4^+ T-cells.\nIn a second step CD4^+CD25^+ regulatory T-cells were in turn isolated from this population by magnetic column separation using CD25 marking [anti-CD25 MicroBeads, Miltenyi Biotech].\nThe CD4^+CD25^− fraction served as effector cell control.\nThe functional capacity of the regulatory T-cells was tested in a special co-culture. For this, 20 000 effector cells (CD4^+CD25^−) and regulatory T-cells (CD4^+CD25^+) in total were respectively cultivated in different quantitative ratios to one another over a period of 120 hours in microtest plates. A solid phase-bound anti-CD3 antibody [UCHT1, 0.25 μg/well] was used as activator of the T-cell stimulation.\nThe degree of proliferation of the cultivated cells was analysed on the basis of the DNA synthesis rate by means of tritium thymidine inclusion over 24 hours [n=5].\nThe degree of proliferation of the cultivated cells was analysed on the basis of the DNA synthesis rate by means of tritium thymidine inclusion over 24 hours [n=3].\nMononuclear cells were obtained from the peripheral blood of healthy donors by means of density-gradient centrifugation. A T-cell separation followed using nylon pad adherence.\nThe isolation of regulatory T-cells occurred by means of a two-stage magnetic separation:\nThe degree of proliferation of the cultivated cells was analysed on the basis of the DNA synthesis rate by means of tritium thymidine inclusion over 24 hours [n=10]."}, "[3]": {"conditions": "N-Phenylphthalimides and -homophthalimides, enzyme not given, alanyl-aminopeptidase, read-out: IC50"}, "[4]": {"conditions": "β-Aminothiols table, read-out: IC50 (nM) APN"}, "[5]": {"conditions": "α-Aminoboric acids, read-out: IC50, μM (APN)"}}, "note": "Like-named read-outs stand apart in the source and are kept apart here.", "data": [{"smiles": "CC(C)c1cccc(C(C)C)c1N1C(=O)Cc2c(O)cccc2C1=O", "values": [{"measurement": "IC50", "setting": "APN; [3]", "result": 4300, "unit": "nM"}]}, {"smiles": "CC(C)CCNC(=O)C(=O)C(N)CC(C)C", "note": "(racemic)", "values": [{"measurement": "Ki", "setting": "Argininyl AP; (R) isomer", "result": 6.5, "unit": "µM"}, {"measurement": "Ki", "setting": "Argininyl AP; (S) isomer", "result": 3.2, "unit": "µM"}, {"measurement": "Ki", "setting": "APN; (R) isomer", "result": 18.6, "unit": "µM"}, {"measurement": "Ki", "setting": "APN; (S) isomer", "result": 10.5, "unit": "µM"}]}, {"smiles": "NC(CS)COCc1ccccc1", "note": "(centres unmarked)", "values": [{"measurement": "IC50", "setting": "APN; [4]", "result": 56, "unit": "nM"}]}, {"smiles": "CSc1ccccc1N1C(=O)Cc2ccccc2C1=O", "values": [{"measurement": "IC50", "setting": "APN; [3]", "result": 900, "unit": "nM"}]}, {"smiles": "CC1(C)OB([C@H](N)Cc2ccccc2)OC1(C)C", "values": [{"measurement": "IC50", "setting": "LAP", "result": 0.2, "unit": "µM"}, {"measurement": "IC50", "setting": "APN; [5]", "result": 50, "unit": "nM"}]}, {"smiles": "CC(C)[C@H](NC(=O)[C@@H](O)[C@H](N)Cc1ccccc1)C(=O)N[C@@H](Cc1ccccc1)C(=O)O", "note": "[phebestin]", "values": [{"measurement": "induction of suppressive capacity of the regulatory T-cells", "setting": "[1]", "result": "induced the suppressive capacity of the regulatory T-cells to a significant degree"}, {"measurement": "activity of the disease (disease activity index) / clinical symptoms", "setting": "colitis in Balb-c mice", "result": "no effect"}]}, {"smiles": "CC(C)CCNC(=O)C(=O)[C@@H](N)Cc1ccccc1", "values": [{"measurement": "Ki", "setting": "Cytosolic AP", "result": 1, "unit": "µM"}, {"measurement": "Ki", "setting": "Argininyl AP", "result": 1.5, "unit": "µM"}, {"measurement": "Ki", "setting": "APN", "result": 2.5, "unit": "µM"}]}, {"smiles": "NC(CS)CC1CCCCC1", "note": "(centres unmarked)", "values": [{"measurement": "IC50", "setting": "APN; [4]", "result": 45, "unit": "nM"}]}, {"smiles": "CC(C)c1cccc(C(C)C)c1N1C(=O)Cc2c(N)cccc2C1=O", "values": [{"measurement": "IC50", "setting": "APN; [3]", "result": 5400, "unit": "nM"}]}, {"smiles": "CC(C)CCNC(=O)[C@@H](O)[C@H](N)CC(C)C", "values": [{"measurement": "Ki", "setting": "Argininyl AP", "result": "> 300", "unit": "µM"}, {"measurement": "Ki", "setting": "APN", "result": 24, "unit": "µM"}]}, {"smiles": "CCOC(=O)[C@H](N)CS", "values": [{"measurement": "IC50", "setting": "APN; [4]", "result": 350, "unit": "nM"}]}, {"smiles": "N[C@H](Cc1ccccc1)B1OCCCO1", "values": [{"measurement": "IC50", "setting": "LAP", "result": 0.2, "unit": "µM"}]}, {"smiles": "CCc1cccc(CC)c1-n1c(=O)[nH]c2ccccc2c1=O", "note": "[PAQ22, 3-(2,6-diethylphenyl-)quinazoline-2,4(1H3H)-dione]", "values": [{"measurement": "induction of suppressive capacity of the regulatory T-cells", "setting": "[2]; 10% and 5% Treg cell components, after 5 days of co-culture", "result": "induced the suppressive capacity"}]}, {"smiles": "CC(C)C[C@@H](N)B(O)O", "values": [{"measurement": "IC50", "setting": "LAP", "result": 0.25, "unit": "µM"}]}, {"smiles": "NC(CS)Cc1ccc(O)cc1", "note": "(centres unmarked)", "values": [{"measurement": "IC50", "setting": "APN; [4]", "result": 45, "unit": "nM"}]}, {"smiles": "CC(C)(C)SCC(N)CS", "note": "(centres unmarked)", "values": [{"measurement": "IC50", "setting": "APN; [4]", "result": 40, "unit": "nM"}]}, {"smiles": "NC(CS)c1ccccc1", "note": "(centres unmarked)", "values": [{"measurement": "IC50", "setting": "APN; [4]", "result": 25, "unit": "nM"}]}, {"smiles": "CC(C)CCNC(=O)[C@@H](O)[C@H](N)Cc1ccccc1", "values": [{"measurement": "Ki", "setting": "APN", "result": 20, "unit": "µM"}]}, {"smiles": "CC(C)C[C@@H](N)B1OC(C)(C)C(C)(C)O1", "values": [{"measurement": "IC50", "setting": "LAP", "result": 0.25, "unit": "µM"}, {"measurement": "IC50", "setting": "APN; [5]", "result": 74, "unit": "nM"}]}, {"smiles": "CCCCC[C@H](CC(=O)NO)C(=O)N[C@H](C(=O)N1CCC[C@H]1CO)C(C)C", "note": "[actinonin]", "values": [{"measurement": "effect of the inhibitor on suppressive capacity of the Treg cells", "setting": "[2]; physiologically relevant range of 10:1 effector cells to Treg cells (10% Treg)", "result": "significant intensification of the suppressive capacity"}, {"measurement": "effect of the inhibitor on suppressive capacity of the Treg cells", "setting": "[2]; ratio of 1:1 of effector cells to Treg cells (50% Treg)", "result": "no reliable effect"}]}, {"smiles": "C[C@@H](N)B1OC(C)(C)C(C)(C)O1", "values": [{"measurement": "IC50", "setting": "LAP", "result": 0.35, "unit": "µM"}, {"measurement": "IC50", "setting": "APN; [5]", "result": 70, "unit": "nM"}]}]}
